Here are results for one compound from patent US11684650B2, “Composition for preventing, alleviating, or treating cachexia and muscle loss” (CHUNG-ANG UNIVERSITY INDUSTRY ACADEMIC COOPERATION …, priority 2018, dated 2023).

Common to all, as to assay type: in vivo, C57BL/6 mice
For assay [1], the system named is mice with tumors induced by MC38 colorectal cancer cells. Description: Treadmill running time test, MC38 tumor-bearing mice. The conditions noted are these: maximum 600 seconds, day 12 of oral treatment, extract 100 mg/kg, Megace 125 mg/kg, mean ± standard deviation. How it is done:
(§1) The mice were divided into a normal group (healthy group), a control group (tumor-induced group), a conventional drug-administered group and a Paeoniae radix extract-administered group, each group consisting of 9 animals. Each animal of the normal group was injected subcutaneously with 100 μl of PBS, and the tumor-induced group (control group), the conventional drug-administered group and the Paeoniae radix extract-administered group were injected subcutaneously with MC38 colorectal cancer cells (1×10^6 cells/100 μl) or Lewis lung carcinoma (LLC) cells (1×10^6 cells/100 μl). […] During the experiment, the food uptake of each mouse was recorded. In addition, the muscle strength of each mouse was measured with a grip strength test device (Bioseb, USA), and the endurance of each mouse was measured under the condition of maximum exercise time of 600 seconds using a treadmill device (Columbus Instrument, USA).
(§2) On day 12th day of the oral treatment of conventional drug or the Paeoniae radix extract to the tumor-induced mice, the muscle strength and endurance of the mice were measured by a grip strength (g) test and a treadmill running time (sec) test, respectively.

The test system of assay [2] is mice with tumors induced by Lewis lung carcinoma (LLC) cells. The assay can be described thus: Food intake and body weight of LLC tumor-bearing mice. The conditions noted are these: oral 14 days, extract 100 mg/kg, Megace 125 mg/kg, mean ± standard deviation. How it is done: (§3) As experimental animals, 4-week-old male C57BL/6 mice (weighed 18 to 20 g) were purchased from Central Lab Animal Inc., acclimated in a laboratory animal facility for 1 week, and then used in the experiment. During the experiment, the animals were allowed to access feed and water ad libitum, and housed at cages at a temperature of 22±2° C. and a relative humidity of 60±5% under a 12-hr light/12-hr dark cycle.
(§4) The mice were divided into a normal group (healthy group), a control group (tumor-induced group), a conventional drug-administered group and a Paeoniae radix extract-administered group, each group consisting of 9 animals. […] During the experiment, the food uptake of each mouse was recorded. In addition, the muscle strength of each mouse was measured with a grip strength test device (Bioseb, USA), and the endurance of each mouse was measured under the condition of maximum exercise time of 600 seconds using a treadmill device (Columbus Instrument, USA).
(§5) While the Paeoniae radix extract was administered orally to the mice for 14 days after tumor induction, the food intake of the mice was recorded. […]

The subject of another assay is IL-6. Description: Serum and muscle inflammatory cytokine ELISA, MC38 tumor-bearing mice. The conditions noted are these: oral 14 days, extract 100 mg/kg, Megace 125 mg/kg, mean ± standard deviation. Here is the method:
as §1
(§6) After completion of the experiment, the mice were euthanized, blood was collected therefrom, and then the tumor weight and the hind limb muscle weight were measured, and the serum and muscle concentrations of TNF-α, IL-6, IL-1 and MCP-1 were quantified by ELISA assay. […]
After the Paeoniae radix extract was administered orally to the mice for 14 days after tumor induction, the mice were euthanized and the serum and muscle concentrations of inflammatory cytokines were measured. […]
In general terms: ELISA stands for enzyme-linked immunosorbent assay.

The subject of assay [3] is mice with tumors induced by MC38 colorectal cancer cells. The assay can be described thus: Grip strength test, MC38 tumor-bearing mice. The conditions noted are these: grip strength on day 12 of oral treatment, extract 100 mg/kg, Megace 125 mg/kg, mean ± standard deviation. Here is the method: as §1, §2
The subject of assay [4] is mice with tumors induced by Lewis lung carcinoma (LLC) cells. Description: Treadmill running time test, LLC tumor-bearing mice. Particulars: maximum 600 seconds, day 12 of oral treatment, extract 100 mg/kg, Megace 125 mg/kg, mean ± standard deviation. How it is done: as §1, §2
Assay [5] relates to mice with tumors induced by MC38 colorectal cancer cells. The assay can be described thus: Food intake of MC38 tumor-bearing mice. Particulars: oral 14 days, extract 100 mg/kg, Megace 125 mg/kg, mean ± standard deviation. Here is the method:
as §3, §4, §5

The subject of assay [6] is Lewis lung carcinoma (LLC) cells. The assay can be described thus: Tumor weight, LLC tumor-bearing mice. Particulars: oral 14 days, extract 100 mg/kg, Megace 125 mg/kg, mean ± standard deviation. Here is the method: as §1, §6
(§7) After the Paeoniae radix extract was administered orally to the mice for 14 days after tumor induction, the mice were euthanized and the tumor weight was measured. […]

Another assay deals with TNF-α, IL-6, MCP-1. Description: Serum and muscle inflammatory cytokine ELISA, LLC tumor-bearing mice. The conditions noted are these: oral 14 days, extract 100 mg/kg, Megace 125 mg/kg, mean ± standard deviation. Here is the method: The mice were divided into a normal group (healthy group), a control group (tumor-induced group), a conventional drug-administered group and a Paeoniae radix extract-administered group, each group consisting of 9 animals. Each animal of the normal group was injected subcutaneously with 100 μl of PBS, and the tumor-induced group (control group), the conventional drug-administered group and the Paeoniae radix extract-administered group were injected subcutaneously with MC38 colorectal cancer cells (1×10^6 cells/100 μl) or Lewis lung carcinoma (LLC) cells (1×10^6 cells/100 μl). When the tumor volume reached about 1,000 mm^3 after 2 weeks of tumor induction, the cancer cachexia treatment agent Megace (megestrol acetate), which is most frequently used in current clinical practice, was administered orally to the conventional drug-administered group. Dose of Megace was 125 mg/kg (=625 mg [daily human dose]/60 kg [human's average body weight]×12 [human/mouse body surface area dose equivalent factor]) for 14 days. Paeoniae radix extract prepared in Example 1 was administered orally to the Paeoniae radix extract-administered group for 14 days at a dose of 100 mg/kg, which is slightly lower than the dose of Megace. During the experiment, the food uptake of each mouse was recorded. In addition, the muscle strength of each mouse was measured with a grip strength test device (Bioseb, USA), and the endurance of each mouse was measured under the condition of maximum exercise time of 600 seconds using a treadmill device (Columbus Instrument, USA).
After completion of the experiment, the mice were euthanized, blood was collected therefrom, and then the tumor weight and the hind limb muscle weight were measured, and the serum and muscle concentrations of TNF-α, IL-6, IL-1 and MCP-1 were quantified by ELISA assay. In addition, the effect of the Paeoniae radix extract on the reduction of muscle atrophy factor (MAFbx) in the hind limb muscle of each LCC cancer-bearing mouse was measured using Western blot and immunofluorescence known in the art.
After the Paeoniae radix extract was administered orally to the mice for 14 days after tumor induction, the mice were euthanized and the serum and muscle concentrations of inflammatory cytokines were measured. As a result, as shown in Table 4 below and FIGS. 2 and 8, the concentrations of tumor-induced inflammatory cytokines increased in the control group (tumor-induced group) compared to the normal (healthy) group.

Assay [7] relates to MC38 colorectal cancer cells. The assay can be described thus: Tumor weight, MC38 tumor-bearing mice. Particulars: oral 14 days, extract 100 mg/kg, Megace 125 mg/kg, mean ± standard deviation. Here is the method:
as §1, §6, §7

In assay [8] the test system is mice with tumors induced by Lewis lung carcinoma (LLC) cells. The assay can be described thus: Grip strength test, LLC tumor-bearing mice. Particulars: grip strength on day 12 of oral treatment, extract 100 mg/kg, Megace 125 mg/kg, mean ± standard deviation. Here is the method:
as §1, §2

Regarding `CC(=O)O[C@]1(C(C)=O)CC[C@H]2[C@@H]3C=C(C)C4=CC(=O)CC[C@]4(C)[C@H]3CC[C@@]21C` [Conventional drug, megestrol acetate], the values for the Endurance in assay [1] and in assay [4] were 177.400 ± 60.844 s and 338.333 ± 157.322 s, respectively. Also, the values for the Food intake in assay [2] and in assay [5] were 2.891 ± 0.417 g and 2.607 ± 0.357 g, respectively. The “Cytokine concentration, Muscle IL-6” value with IL-6 was found to be 156.167 ± 29.486 pg/mL. In addition, the “Cytokine concentration, Serum IL-6” value with IL-6 was 49.222 ± 22.762 pg/mL; in the assay with TNF-α, IL-6, MCP-1 it was 15.616 ± 8.902 pg/mL. The values for the Muscle strength in [3] and in assay [8] were 172.065 ± 28.210 g and 154.883 ± 17.238 g, respectively. Also, the Tumor weight was determined as 7.797 ± 2.385 g in assay [6] and 11.747 ± 3.073 g in assay [7]. Also, the “Cytokine concentration, Muscle TNF-α” value in the assay with TNF-α, IL-6, MCP-1 was 21.910 ± 5.414 pg/mL. Moreover, in the assay on TNF-α, IL-6, MCP-1, the “Cytokine concentration, Serum MCP-1” value stood at 431.670 ± 191.640 pg/mL. Besides, the “Cytokine concentration, Serum TNF-α” value with TNF-α, IL-6, MCP-1 amounted to 3.302 ± 0.422 pg/mL.
